{"source": "the Kinase Knowledgebase extract (Sharma et al. 2016)", "biological_target": "ROCK1;ROCK2 (human) (UniProt O75116)", "sequence (O75116 whole entry, looked up)": "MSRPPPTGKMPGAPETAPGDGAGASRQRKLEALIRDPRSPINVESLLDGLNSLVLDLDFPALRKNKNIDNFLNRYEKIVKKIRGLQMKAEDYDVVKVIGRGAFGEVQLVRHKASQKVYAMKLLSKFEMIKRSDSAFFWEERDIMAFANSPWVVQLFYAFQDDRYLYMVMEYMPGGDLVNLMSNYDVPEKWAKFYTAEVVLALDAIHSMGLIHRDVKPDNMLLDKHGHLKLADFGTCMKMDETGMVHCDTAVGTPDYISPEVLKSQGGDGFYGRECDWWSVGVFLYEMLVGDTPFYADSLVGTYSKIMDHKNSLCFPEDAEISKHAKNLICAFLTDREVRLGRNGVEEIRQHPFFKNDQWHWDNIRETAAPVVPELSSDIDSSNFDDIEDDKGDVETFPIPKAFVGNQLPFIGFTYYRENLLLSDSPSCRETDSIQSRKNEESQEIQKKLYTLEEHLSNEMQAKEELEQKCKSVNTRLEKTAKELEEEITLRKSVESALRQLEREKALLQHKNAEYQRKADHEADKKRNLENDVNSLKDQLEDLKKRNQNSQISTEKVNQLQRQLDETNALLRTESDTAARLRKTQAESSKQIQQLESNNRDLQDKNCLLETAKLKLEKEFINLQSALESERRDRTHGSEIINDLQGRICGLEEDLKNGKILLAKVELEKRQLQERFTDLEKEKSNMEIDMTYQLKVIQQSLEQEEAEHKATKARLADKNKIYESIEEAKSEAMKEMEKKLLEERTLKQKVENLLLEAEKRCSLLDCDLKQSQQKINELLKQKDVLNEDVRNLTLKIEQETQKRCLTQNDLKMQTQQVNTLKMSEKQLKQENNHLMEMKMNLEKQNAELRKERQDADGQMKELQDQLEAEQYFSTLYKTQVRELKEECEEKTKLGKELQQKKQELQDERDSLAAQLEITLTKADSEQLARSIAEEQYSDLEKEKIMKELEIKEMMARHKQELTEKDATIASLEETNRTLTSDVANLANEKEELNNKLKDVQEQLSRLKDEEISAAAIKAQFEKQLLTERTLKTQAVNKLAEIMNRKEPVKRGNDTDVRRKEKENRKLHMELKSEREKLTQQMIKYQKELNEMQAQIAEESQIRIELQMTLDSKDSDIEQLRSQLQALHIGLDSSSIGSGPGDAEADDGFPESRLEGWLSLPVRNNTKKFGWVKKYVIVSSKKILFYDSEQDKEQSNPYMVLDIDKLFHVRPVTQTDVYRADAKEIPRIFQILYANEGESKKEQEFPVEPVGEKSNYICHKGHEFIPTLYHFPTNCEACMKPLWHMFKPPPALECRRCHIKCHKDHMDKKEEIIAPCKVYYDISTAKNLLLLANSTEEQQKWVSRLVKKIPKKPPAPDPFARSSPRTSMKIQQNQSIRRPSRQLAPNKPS", "experiment": "Inhibition of ROCK1/ROCK2 Kinase Activity", "note": "pIC50: −log10 of the molar value.", "data": [{"smiles": "CC(N)c1ccc(C(=O)Nc2ccncc2)cc1OCCO", "note": "(stereo unspecified)", "values": [{"measurement": "pIC50", "value": "5.30 to 6.30"}]}, {"smiles": "COc1ccc(C(=O)Nc2cc(C(=O)Nc3ccncc3)ccc2C(C)N)cc1", "note": "(stereo unspecified)", "values": [{"measurement": "pIC50", "value": "> 7.30"}]}, {"smiles": "CC(N)c1ccc(C(=O)Nc2ccncc2)cc1NC(=O)c1ccccc1", "note": "(stereo unspecified)", "values": [{"measurement": "pIC50", "value": "6.30 to 7.30"}]}, {"smiles": "CC(N)c1ccc(C(=O)Nc2ccncc2)cc1OCc1ccccc1", "note": "(stereo unspecified)", "values": [{"measurement": "pIC50", "value": "6.30 to 7.30"}]}, {"smiles": "CC(N)c1ccc(C(=O)Nc2ccncc2)cc1-c1cccc(Cl)c1", "note": "(stereo unspecified)", "values": [{"measurement": "pIC50", "value": "> 7.30"}]}, {"smiles": "CC(N)c1ccc(C(=O)Nc2ccncc2)cc1NC(=S)Nc1ccccc1", "note": "(stereo unspecified)", "values": [{"measurement": "pIC50", "value": "6.30 to 7.30"}]}, {"smiles": "C[C@@H](N)c1ccc(C(=O)Nc2ccncc2)cc1-c1cccs1", "values": [{"measurement": "pIC50", "value": "> 7.30"}]}, {"smiles": "CC(N)c1ccc(C(=O)Nc2ccncc2)cc1NCc1ccco1", "note": "(stereo unspecified)", "values": [{"measurement": "pIC50", "value": "6.30 to 7.30"}]}, {"smiles": "CC(N)c1ccc(C(=O)Nc2ccncc2)cc1[N+](=O)[O-]", "note": "(stereo unspecified)", "values": [{"measurement": "pIC50", "value": "6.30 to 7.30"}]}, {"smiles": "CC(N)c1ccc(C(=O)Nc2ccncc2)cc1NC(=O)Nc1ccccc1", "note": "(stereo unspecified)", "values": [{"measurement": "pIC50", "value": "6.30 to 7.30"}]}, {"smiles": "CC(N)c1ccc(C(=O)Nc2ccncc2)cc1-c1ccc2ccccc2c1", "note": "(stereo unspecified)", "values": [{"measurement": "pIC50", "value": "> 7.30"}]}, {"smiles": "CC(N)c1ccc(C(=O)Nc2ccncc2)cc1OCCCO", "note": "(stereo unspecified)", "values": [{"measurement": "pIC50", "value": "5.30 to 6.30"}]}, {"smiles": "CC(N)c1ccc(C(=O)Nc2ccncc2)cc1-c1ccoc1", "note": "(stereo unspecified)", "values": [{"measurement": "pIC50", "value": "6.30 to 7.30"}]}, {"smiles": "CC(N)c1ccc(C(=O)Nc2ccncc2)cc1NC(=O)c1ccco1", "note": "(stereo unspecified)", "values": [{"measurement": "pIC50", "value": "6.30 to 7.30"}]}, {"smiles": "CC(N)c1ccc(C(=O)Nc2ccncc2)cc1-c1ccc(Cl)cc1", "note": "(stereo unspecified)", "values": [{"measurement": "pIC50", "value": "> 7.30"}]}, {"smiles": "CC(N)c1ccc(C(=O)Nc2ccncc2)cc1-c1cccs1", "note": "(stereo unspecified)", "values": [{"measurement": "pIC50", "value": "> 7.30"}]}, {"smiles": "COc1ccc(-c2cc(C(=O)Nc3ccncc3)ccc2C(C)N)cc1", "note": "(stereo unspecified)", "values": [{"measurement": "pIC50", "value": "6.30 to 7.30"}]}, {"smiles": "CC(N)c1ccc(C(=O)Nc2ccncc2)cc1-c1ccc(F)cc1", "note": "(stereo unspecified)", "values": [{"measurement": "pIC50", "value": "> 7.30"}]}, {"smiles": "CC(N)c1ccc(C(=O)Nc2ccncc2)cc1OCCCN", "note": "(stereo unspecified)", "values": [{"measurement": "pIC50", "value": "5.30 to 6.30"}]}, {"smiles": "CC(N)c1ccc(C(=O)Nc2ccncc2)cc1NC(=O)c1ccc(Cl)cc1", "note": "(stereo unspecified)", "values": [{"measurement": "pIC50", "value": "6.30 to 7.30"}]}, {"smiles": "CC(N)c1ccc(C(=O)Nc2ccncc2)cc1OCCN", "note": "(stereo unspecified)", "values": [{"measurement": "pIC50", "value": "5.30 to 6.30"}]}, {"smiles": "CC(N)c1ccc(C(=O)Nc2ccncc2)cc1NC(=O)c1cccc(Cl)c1", "note": "(stereo unspecified)", "values": [{"measurement": "pIC50", "value": "6.30 to 7.30"}]}, {"smiles": "CC(N)c1ccc(C(=O)Nc2ccncc2)cc1O", "note": "(stereo unspecified)", "values": [{"measurement": "pIC50", "value": "5.30 to 6.30"}]}, {"smiles": "COc1cccc(C(=O)Nc2cc(C(=O)Nc3ccncc3)ccc2C(C)N)c1", "note": "(stereo unspecified)", "values": [{"measurement": "pIC50", "value": "> 7.30"}]}, {"smiles": "C[C@H](N)c1ccc(C(=O)Nc2ccncc2)cc1-c1cccs1", "values": [{"measurement": "pIC50", "value": "6.30 to 7.30"}]}, {"smiles": "CC(N)c1ccc(C(=O)Nc2ccncc2)cc1N", "note": "(stereo unspecified)", "values": [{"measurement": "pIC50", "value": "5.30 to 6.30"}]}]}
